Experimental data: patent US9763445B2, “Safened herbicidal compositions comprising a pyridine carboxylic acid herbicide” (Dow AgroSciences, LLC, priority 2014, dated 2017)
Like-named read-outs stand apart in the source and are kept apart here.

Tests used:
[1] = system: thistle (CIRAR); assay: Postemergence greenhouse trial, % visual injury on thistle; type: in vivo, Cirsium arvense; conditions: Cirsium arvense, post-emergence, CIRAR, read-out: % visual injury, Ob
Method: Seeds of the desired test plant species were planted in Sun Gro MetroMix® 306 planting mixture, which typically has a pH of 6.0 to 6.8 and an organic matter content of about 30 percent, in plastic pots with a surface area of 103.2 square centimeters (cm^2). When required to ensure good germination and healthy plants, a fungicide treatment and/or other chemical or physical treatment was applied. The plants were grown for 7-36 days (d) in a greenhouse with an approximate 14-hour (h) photoperiod which was maintained at about 23° C. during the day and 22° C. during the night. Nutrients and water were added on a regular basis and supplemental lighting was provided with overhead metal halide 1000-Watt lamps as necessary. The plants were employed for testing when they reached the second or third true leaf stage.
Weighed amounts of technical material were dissolved in a volume of 97:3 volume per volume (v/v) acetone/dimethyl sulfoxide (DMSO) to stock solutions. […] The concentrated stock solutions were diluted with an aqueous mixture of 1.5% v/v of Agri-dex crop oil concentrate to provide the appropriate application rates. Compound requirements are based upon a 12 milliliter (mL) application volume at a rate of 187 liters per hectare (L/ha). Stocks solutions of the safeners were prepared following the same procedure. Spray solutions of the safeners and experimental compound mixtures were prepared by adding the stock solutions to the appropriate amount of dilution solution to form a 12 mL spray solution in two-way combinations. Formulated compounds were applied to the plant material with an overhead Mandel track sprayer equipped with 8002E nozzles calibrated to deliver 187 L/ha over an application area of 0.503 square meters (m^2) at a spray height of 18 inches (43 centimeters (cm)) above average plant canopy. Control plants were sprayed in the same manner with the solvent blank. All herbicide application (component a) rates are in g ae/ha and all safener (component b) rates are in g ai/ha.
The treated plants and control plants were placed in a greenhouse as described above and watered by sub-irrigation to prevent wash-off of the test compounds. After 20-22 d, the condition of the test plants as compared with that of the control plants was determined visually and scored on a scale of 0 to 100 percent where 0 corresponds to no injury and 100 corresponds to complete kill. The condition of the test plants was compared with that of the control plants as determined visually and scored on a scale of 0 to 100 percent, where 0 corresponds to no injury and 100 corresponds to complete kill. Colby's equation was used to determine the herbicidal effects expected from the mixtures.
The safener cloquintocet-mexyl was combined with compound 1, compound 2, compound 4, compound 5, and compound 6, and applied to corn/maize (ZEAMX) and spring wheat (TRZAS) and the phytotoxicity of the herbicidal compositions was measured. In addition, the efficacy of the herbicidal composition on velvetleaf (ABUTH, Abutilon theophrasti), pigweed (AMARE, Amaranthus retroflexus), winter rape (BRSNW, Brassica napus), lambsquarters (CHEAL, Chenopodium album), thistle (CIRAR, Cirsium arvense), nutsedge (CYPES, Cyperus esculentus), poinsettia (EPHHL, Euphorbia heterophylla), wild buckwheat (POLCO, Polygonum convolvulus), giant foxtail (SETFA, Setaria faberi), and chickweed (STEME, Stellaria media) was evaluated. […]

[2] = system: common poppy (PAPRH); assay: Postemergence greenhouse trial, % visual injury on common poppy; type: in vivo, Papaver rhoeas; conditions: Papaver rhoeas, post-emergence, PAPRH, read-out: % visual injury, Ob
In short: (§1)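 Herbicide rates g ae/ha, safener (cloquintocet-mexyl) rates g ai/ha; spray carrier 1.5% v/v crop oil concentrate, 187 L/ha, 2nd–3rd leaf stage. Rating: visual % injury at 20-22 d.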

[3] = system: wild mustard (SINAR); assay: Postemergence greenhouse trial, % visual injury on wild mustard; type: in vivo, Sinapis arvensis; conditions: Brassica, post-emergence, SINAR, read-out: % visual injury, Ob
In short: as §1

[4] = system: pigweed (AMARE); assay: Postemergence greenhouse trial, % visual injury on pigweed; type: in vivo, Amaranthus retroflexus; conditions: Amaranthus retroflexus, post-emergence, AMARE, CQC-m 0, read-out: % visual injury, Ob
In short: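 Injury was scored visually (0 = none, 100 = complete kill) 20–22 d after track-sprayer application at 187 L/ha, compared with solvent-sprayed controls. Test plants at the 2–3 true leaf stage; herbicide (g ae/ha) plus cloquintocet-mexyl safener (g ai/ha) in crop-oil-containing spray; expected mixture response by Colby.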

[5] = system: winter rape (BRSNW); assay: Postemergence greenhouse trial, % visual injury on winter rape; type: in vivo, Brassica napus; conditions: Brassica napus, post-emergence, BRSNW, CQC-m 0, read-out: % visual injury, Ob
In short: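 Visual injury, 0 (none) to 100 (complete kill), rated 20-22 d after overhead track-sprayer application at 187 L/ha; Colby's equation gave expected mixture responses. Herbicide (g ae/ha) and cloquintocet-mexyl safener (g ai/ha) diluted in aqueous 1.5% v/v Agri-dex, applied to weeds at 2–3 true leaves.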

[6] = system: kochia (KCHSC); assay: Postemergence greenhouse trial, % visual injury on kochia; type: in vivo, Kochia scoparia; conditions: Bassia scoparia, post-emergence, KCHSC, read-out: % visual injury, Ob
In short: as §1

CCCCOC(=O)c1nc(-c2ccc3cc[nH]c3c2F)c(F)c(N)c1Cl [compound 9]
pest or weed control at 4.38 g/ha ([1]; compound 4.380 g/ha, CQC-m 0): 10% | pest or weed control at 8.75 g/ha ([1]; compound 8.75 g/ha, CQC-m 0): 30% | pest or weed control at 17.5 g/ha ([1]; compound 17.5 g/ha, CQC-m 0): 70% | pest or weed control at 35 g/ha ([1]; compound 35 g/ha, CQC-m 0): 95% | pest or weed control at 70 g/ha ([1]; compound 70 g/ha, CQC-m 0): 97% | pest or weed control at 4.38 g/ha ([2]; compound 4.380 g/ha, CQC-m 0): 90% | pest or weed control at 8.75 g/ha ([2]; compound 8.75 g/ha, CQC-m 0): 87% | pest or weed control at 17.5 g/ha ([2]; compound 17.5 g/ha, CQC-m 0): 100% | pest or weed control at 35 g/ha ([2]; compound 35 g/ha, CQC-m 0): 93% | pest or weed control at 70 g/ha ([2]; compound 70 g/ha, CQC-m 0): 100% | pest or weed control at 4.38 g/ha ([3]; compound 4.380 g/ha, CQC-m 0): 93% | pest or weed control at 8.75 g/ha ([3]; compound 8.75 g/ha, CQC-m 0): 95% | pest or weed control at 17.5 g/ha ([3]; compound 17.5 g/ha, CQC-m 0): 95% | pest or weed control at 35 g/ha ([3]; compound 35 g/ha, CQC-m 0): 100% | pest or weed control at 70 g/ha ([3]; compound 70 g/ha, CQC-m 0): 100% | pest or weed control at 4.38 g/ha ([4]; compound 4.380 g/ha): 10% | pest or weed control at 8.75 g/ha ([4]; compound 8.75 g/ha): 20% | pest or weed control at 17.5 g/ha ([4]; compound 17.5 g/ha): 50% | pest or weed control at 70 g/ha ([4]; compound 70 g/ha): 100% | plant injury at 4.38 g/ha ([5]; compound 4.380 g/ha): 60% | plant injury at 8.75 g/ha ([5]; compound 8.75 g/ha): 60% | plant injury at 17.5 g/ha ([5]; compound 17.5 g/ha): 90% | plant injury at 35 g/ha ([5]; compound 35 g/ha): 98% | plant injury at 70 g/ha ([5]; compound 70 g/ha): 100% | pest or weed control at 4.38 g/ha ([6]; compound 4.380 g/ha, CQC-m 0): 60% | pest or weed control at 8.75 g/ha ([6]; compound 8.75 g/ha, CQC-m 0): 60% | pest or weed control at 17.5 g/ha ([6]; compound 17.5 g/ha, CQC-m 0): 85% | pest or weed control at 35 g/ha ([6]; compound 35 g/ha, CQC-m 0): 100% | pest or weed control at 70 g/ha ([6]; compound 70 g/ha, CQC-m 0): 100%

Nc1c(F)c(-c2ccc3ccoc3c2)nc(C(=O)O)c1Cl [compound 20]
pest or weed control at 4.375 g/ha ([1]; 4.375 g/ha, applied alone): 0% | pest or weed control at 8.75 g/ha ([1]; 8.75 g/ha, applied alone): 10% | pest or weed control at 17.5 g/ha ([1]; 17.5 g/ha, applied alone): 20% | pest or weed control at 35 g/ha ([1]; 35 g/ha, applied alone): 40% | pest or weed control at 70 g/ha ([1]; 70 g/ha, applied alone): 70% | pest or weed control at 4.375 g/ha ([2]; 4.375 g/ha, applied alone): 85% | pest or weed control at 8.75 g/ha ([2]; 8.75 g/ha, applied alone): 85% | pest or weed control at 17.5 g/ha ([2]; 17.5 g/ha, applied alone): 95% | pest or weed control at 35 g/ha ([2]; 35 g/ha, applied alone): 100% | pest or weed control at 70 g/ha ([2]; 70 g/ha, applied alone): 95% | pest or weed control at 4.375 g/ha ([3]; 4.375 g/ha, applied alone): 60% | pest or weed control at 8.75 g/ha ([3]; 8.75 g/ha, applied alone): 60% | pest or weed control at 17.5 g/ha ([3]; 17.5 g/ha, applied alone): 83% | pest or weed control at 35 g/ha ([3]; 35 g/ha, applied alone): 80% | pest or weed control at 70 g/ha ([3]; 70 g/ha, applied alone): 93% | pest or weed control at 4.375 g/ha ([6]; 4.375 g/ha, applied alone): 70% | pest or weed control at 8.75 g/ha ([6]; 8.75 g/ha, applied alone): 80% | pest or weed control at 17.5 g/ha ([6]; 17.5 g/ha, applied alone): 85% | pest or weed control at 35 g/ha ([6]; 35 g/ha, applied alone): 90% | pest or weed control at 70 g/ha ([6]; 70 g/ha, applied alone): 95%
